Experimental data as given in the SangsterLogP compilation.

With `O=C(NCCCCN1CCc2ccccc2C1)C1CCC1` the logP was 3.3.
Work on `CC(=O)NCCCN1CCc2ccccc2C1` yielded a logP of 2.66.
`O=C(NCCCN1CCc2ccccc2C1)C1CCC2CCCC21` (configuration not stated) showed a logP of 4.5.
For `CC(C)C(=O)NCCCN1CCc2ccccc2C1`, the logP was 2.56.
In the case of `CC(C)(C)C(=O)NCCCN1CCc2ccccc2C1`, the logP is reported as 3.46.
`O=C(NCCCN1CCc2ccccc2C1)C1CC1` showed a logP of 2.75.
For `O=C(NCCCCN1CCc2ccccc2C1)C12CC3CC(CC(C3)C1)C2`, the logP was 4.82.
Work on `O=C(NCCN1CCc2ccccc2C1)C1CCC1` yielded a logP of 2.9.
In the case of `O=C(NCCN1CCc2ccccc2C1)C1CCC2CCCC21` (configuration not stated), the logP is reported as 4.37.
For `O=C(NCCCN1CCc2ccccc2C1)C1CCCCC1`, the logP was 3.44.
With `CC(C)(C)C(=O)NCCCCN1CCc2ccccc2C1` the logP was 3.31.
Work on `O=C(NCCCCN1CCc2ccccc2C1)C1CCC2CCCC21` (configuration not stated) yielded a logP of 4.46.
Work on `CC(C)C(=O)NCCN1CCc2ccccc2C1` yielded a logP of 2.87.
With `O=C(NCCN1CCc2ccccc2C1)C1CCCCC1` the logP was 3.14.
Work on `O=C(NCCN1CCc2ccccc2C1)C12CC3CC(CC(C3)C1)C2` yielded a logP of 4.61.
With `O=C(CC1CC2CCC1C2)NCCN1CCc2ccccc2C1` (configuration not stated) the logP was 4.26.
In the case of `O=C(NCCN1CCc2ccccc2C1)C1CCCC1`, the logP is reported as 3.52.
With `CC(=O)NCCN1CCc2ccccc2C1` the logP was 1.83.
`CC(C)(C)C(=O)NCCN1CCc2ccccc2C1` gave a logP of 3.13.
Compound `O=C(NCCCCN1CCc2ccccc2C1)C1CC1` has a logP of 3.02.
In the case of `O=C(NCCCN1CCc2ccccc2C1)C12CC3CC(CC(C3)C1)C2`, the logP is reported as 5.14.
In the case of `O=C(NCCCN1CCc2ccccc2C1)C1CCC1`, the logP is reported as 3.12.
With `CC(=O)NCCCCN1CCc2ccccc2C1` the logP was 2.3.
In the case of `O=C(NCCCN1CCc2ccccc2C1)C1CCCC1`, the logP is reported as 3.45.
With `O=C(CC1CC2CCC1C2)NCCCCN1CCc2ccccc2C1` (configuration not stated) the logP was 4.58.
Compound `O=C(NCCN1CCc2ccccc2C1)C1CC1` has a logP of 2.76.
For `CC(C)C(=O)NCCCCN1CCc2ccccc2C1`, the logP was 2.93.
